Experiments:
Assay type in all cases: cell-based
[1] = tested on: bovine muscle stem cell; assay: muscle cell proliferation (microscope, MTS analysis); settings: various concentrations, cultured for 4 days, FIGS. 3 and 4
Experimental: (§1) Mouse myoblast cell line (C2C12) used was purchased from American Type Culture Collection (ATCC). Muscle stem cells were collected from leg muscles of cows, pigs, and chickens, minced, and reacted with 1% Pronase enzyme at 37°C for 2 hours, followed by centrifugation at 1,000 g for 3 minutes. After centrifugation, the supernatant was removed, and the tissue was suspended in Dulbecco's Modified Eagle's Medium (DMEM) supplemented with 1% penicillin/streptomycin (hereinafter referred to as P/S) and 10% fetal bovine serum (hereinafter referred to as FBS), and then the tissue and cells were separated through a 100 µm filter. The separated cells were centrifuged at 1,000 g for 5 minutes, the supernatant was removed, and the cells were suspended in Ham's F10 growth medium containing 1% P/S, 20% FBS, and 5 ng/mL fibroblast growth factor 2 (FGF2), after which cells were transferred to a cell culture dish and cultured at 37°C in the presence of 5% CO2.
(§2) To identify the effect of quercetin on muscle stem cell proliferation, myoblasts and muscle stem cells being cultured in proliferation medium (Ham's F10 containing 1% P/S, 20% FBS, and 5 ng/mL FGF2) were treated with various concentrations of quercetin and cultured for 4 days. To compare proliferation rates, MTS analysis was performed. Myoblasts and muscle stem cells were cultured in a proliferation medium for 4 days, and after removing all of the medium, a culture medium in which proliferation medium and MTS reagent are mixed in a ratio of 8:2 was treated to the cells, followed by a reaction for 1 hour. The reacted culture medium was transferred to a 96-well microplate in a volume of 100 µL, and the absorbance of the culture medium contained in each well was measured at 490 nm using a microplate.
(§3) According to the Experimental Example 2, in order to identify the effect of quercetin on muscle cell proliferation, quercetin was added at various concentrations during the proliferation culture of myoblasts and muscle stem cells, and after culturing for 4 days, observation was made under a microscope, followed by MTS analysis for comparison of the proliferation rate.

[2] = tested on: Mouse myoblast cell line (C2C12); assay: as above; settings: various concentrations, cultured for 4 days, FIGS. 3 and 4
Experimental: as §1, §2, §3

[3] = tested on: chicken muscle stem cell; assay: as above; settings: various concentrations, cultured for 4 days, FIGS. 3 and 4
Experimental: as §1, §2, §3

[4] = tested on: porcine muscle stem cell; assay: as above; settings: various concentrations, cultured for 4 days, FIGS. 3 and 4
Experimental: as §1, §2, §3

[5] = tested on: bovine muscle stem cell; assay: muscle cell differentiation (microscope, creatine kinase activity); settings: 4 days
Experimental: as §1
(§4) To determine the effect of quercetin on muscle stem cell differentiation, myoblasts and muscle stem cells being differentiated were treated with different concentrations of quercetin in differentiation medium ([…]) and cultured for 4 days. To compare differentiation rates, creatine kinase activity was analyzed. Myoblasts and muscle stem cells were cultured in differentiation medium for 4 days, then all media were removed, followed by washing with phosphate buffer saline (PBS), 200 µL of new saline was added, and the cells were scraped and collected. Afterwards, the cells were disrupted through sonication, and the supernatant was separated through centrifugation. For analysis of creatine kinase activity, a mixture (100 µL of buffer, 10 µL of substrate, and 1 µL of enzyme) was prepared, and 100 µL of the mixture was treated to 10 µL of the supernatant. Afterwards, the absorbance at 340 nm was measured at 20 and 25 minutes after the start of the reaction using a microplate reader, and the value of creatine kinase activity (U/L) was calculated using the following Equation 1. [formula]
(§5) According to the Experimental Example 2, in order to identify the effect of quercetin on muscle cell differentiation, quercetin was added at various concentrations during differentiation culture of myoblasts and muscle stem cells, and after culturing for 4 days, observation was made under a microscope, followed by analysis of creatine kinase activity to compare the differentiation rate.

[6] = tested on: chicken muscle stem cell; assay: as above; settings: 4 days
Experimental: as §1, §4, §5

[7] = tested on: porcine muscle stem cell; assay: as above; settings: 4 days
Experimental: as §1, §4, §5

[8] = tested on: Mouse myoblast cell line (C2C12); assay: as above
Experimental: To determine the effect of quercetin on muscle stem cell differentiation, myoblasts and muscle stem cells being differentiated were treated with different concentrations of quercetin in differentiation medium (Ham's F10 containing 1% P/S, 20% FBS, and 5 ng/mL FGF2) and cultured for 4 days. To compare differentiation rates, creatine kinase activity was analyzed. Myoblasts and muscle stem cells were cultured in differentiation medium for 4 days, then all media were removed, followed by washing with phosphate buffer saline (PBS), 200 µL of new saline was added, and the cells were scraped and collected. Afterwards, the cells were disrupted through sonication, and the supernatant was separated through centrifugation. For analysis of creatine kinase activity, a mixture (100 µL of buffer, 10 µL of substrate, and 1 µL of enzyme) was prepared, and 100 µL of the mixture was treated to 10 µL of the supernatant. Afterwards, the absorbance at 340 nm was measured at 20 and 25 minutes after the start of the reaction using a microplate reader, and the value of creatine kinase activity (U/L) was calculated using the following Equation 1. [formula] […]

[9] = tested on: muscle differentiation-related factors (MYOD, MYOG, and MYH); assay: gene and protein expression of muscle differentiation-related factors (real-time PCR, Western blot); settings: 10 nM quercetin, FIG. 7
Experimental: 1 mL of TRIzol (TRIzol™) reagent was added to the cultured cells, and the cells were crushed. 200 µLof chloroform was added to the crushed cells, and centrifugation was performed at 12,000 rpm for 10 minutes. After centrifugation, the upper clear water layer was transferred to a new tube, followed by addition of 500 µLof isopropanol. Afterwards, the mixture was mixed sufficiently and centrifuged at 12,000 rpm for 10 minutes. Thereafter, all supernatants except the RNA pellet were removed, and 1 mL of 70% ethanol was added, followed by washing. Afterwards, all ethanol was removed, and the RNA pellet was dissolved in distilled water containing diethylpyrocarbonate (hereinafter referred to as DEPC). The obtained RNA was quantified using a spectrophotometer, and then 2 µg of total RNA was reacted with reverse transcriptase to synthesize cDNA.
To identify an effect of quercetin on gene expression of muscle differentiation-related factors [myoblast determination protein 1 (hereinafter referred to as MYOD), myogenin (hereinafter referred to as MYOG), and myosin heavy chain (hereinafter referred to as MYH)], real-time PCR was performed. Synthesized cDNA and primers designed using NCBI's primer blast tool; and reagents containing SYBR green fluorescent substance were mixed. Real-time PCR was analyzed via the 7500 real-time PCR from Applied Biosystems.
To determine the effect of quercetin on the protein expression of muscle differentiation-related factors (MYOD, MYOG, and MYH), Western blot was performed. All media of cells being cultured were removed and washed with saline solution. A mixture containing RIPA buffer and 1% protease inhibitor was added to the cells and scraped. After centrifugation at 12,000 rpm for 10 minutes, the supernatant was recovered and quantified using a spectrophotometer. 60 µg of the extracted protein was electrophoresed on a 10% acrylamide gel and transferred to a polyvinylidene fluoride (PVDF) membrane (Milipore). Blocking was performed for 1 hour in tris-buffered saline (TBS) buffer containing 3% skim milk and 1% surfactant (tween-20), and the primary antibody was added. After reacting for 16 hours at 4°C, washing was performed three times for 10 minutes in TBS buffer containing 1% surfactant (Tween-20), followed by a reaction with the secondary antibody for 1 hour at room temperature. Afterwards, washing was performed three times for 10 minutes in TBS buffer containing 1% surfactant (tween-20), followed by development after adding Super Signal West Pico Chemiluminescent Substrate.
According to the above Experimental Example 4, to identify the effect of quercetin on the expression of factors related to muscle differentiation, 10 nM quercetin was added to the process of differentiating myoblasts and muscle stem cells, and gene and protein expression of the factors was analyzed.

[10] = 10 nM and 100 nM treatment groups, FIG. 5

O=c1c(O)c(-c2ccc(O)c(O)c2)oc2cc(O)cc(O)c12 [quercetin]
no significant change: proliferation rate [1] | proliferation rate [2] | proliferation rate [3] | proliferation rate [4]
increased: diameter of myotubes [5, 10] | diameter of myotubes [6, 10] | diameter of myotubes [7, 10] | diameter of myotubes ([8]; mouse myoblast, 10 nM and 100 nM treatment groups, 4 days, FIG. 5)
17%: creatine kinase activity increase compared to the control group (Con) ([8]; mouse myoblasts, differentiation medium, quercetin 10 nM, antioxidant supplement diluted 1,000-fold, FIG. 8B)
significantly increased: creatine kinase activity ([5]; 10 nM and 100 nM, FIG. 6) | creatine kinase activity ([6]; 10 nM and 100 nM, FIG. 6) | creatine kinase activity ([7]; 10 nM and 100 nM, FIG. 6) | creatine kinase activity ([8]; mouse myoblast, 10 nM and 100 nM, 4 days, FIG. 6) | MYH expression ([9]; bovine muscle stem cells) | MYOD expression ([9]; bovine muscle stem cells) | MYOG expression ([9]; bovine muscle stem cells) | MYH expression ([9]; chicken muscle stem cells) | MYOG expression ([9]; chicken muscle stem cells) | MYH expression ([9]; mouse myoblasts) | MYOD expression ([9]; mouse myoblasts) | MYOG expression ([9]; mouse myoblasts) | MYH expression ([9]; porcine muscle stem cells) | MYOD expression ([9]; porcine muscle stem cells) | MYOG expression ([9]; porcine muscle stem cells)

— patent EP4685228A1, “MEDIUM COMPOSITION FOR PROMOTING MUSCLE CELL DIFFERENTIATION COMPRISING QUERCETIN AS ACTIVE INGREDIENT” (Industry Academic Cooperation Foundation of Yeungnam …, priority 2023, dated 2024)
